The record followed here is publication PMC6934184, “Selective DNA-PKcs inhibition extends the therapeutic index of localized radiotherapy and chemotherapy” (The Journal of Clinical Investigation, 2019).

The target of the test is T1, CSNK1G3 (CK1 gamma 3) (Homo sapiens, UniProt Q9Y6M4).
T1 construct: purchased Thermo Fisher Scientific (Life Technologies) SelectScreen
As to the kind of experiment: SelectScreen Z'LYTE. It is filed as biochemical. The method in brief:
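SelectScreen broad panel; activity (Z'LYTE, Adapta) plus binding formats. ATP: Km app for CSF1R Z'LYTE; 10 for CAMK1 Adapta. Readout = % per kinase.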

Each structure is given as a SMILES string.

T1 sequence (Q9Y6M4 whole entry): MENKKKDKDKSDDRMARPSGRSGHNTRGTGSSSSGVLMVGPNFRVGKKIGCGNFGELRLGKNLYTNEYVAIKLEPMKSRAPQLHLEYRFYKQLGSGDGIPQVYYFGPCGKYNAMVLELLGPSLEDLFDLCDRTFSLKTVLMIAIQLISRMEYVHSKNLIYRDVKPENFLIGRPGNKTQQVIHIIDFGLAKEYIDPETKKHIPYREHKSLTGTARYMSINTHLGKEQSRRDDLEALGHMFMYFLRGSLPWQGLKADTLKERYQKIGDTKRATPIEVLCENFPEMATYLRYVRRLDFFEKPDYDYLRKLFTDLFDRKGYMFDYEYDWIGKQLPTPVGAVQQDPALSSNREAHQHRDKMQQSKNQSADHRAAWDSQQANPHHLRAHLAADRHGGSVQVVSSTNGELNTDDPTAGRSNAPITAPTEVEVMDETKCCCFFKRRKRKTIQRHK

Regarding `CN(C(=O)CN1CCOCC1)c1ccc2sc3c(-c4cccc5c(=O)cc(N6CC7CCC(C6)O7)oc45)cccc3c2c1` [NU5455], at 1 µM the inhibition was 4.2%.
